From patent US20100258138A1, “RADIOLABELED 1-ACETATE PET IMAGING FOR RA[…] HEAD AND NECK CANCER” (priority 2006, published 2010)
“And” between values parts separate entries of the source, which are not always exact repeats. Equal entries are not always repeated.

Columns and labels:
[1] = test system: primary tumors of head and neck squamous cell carcinoma; test: ACE-PET imaging of primary tumors; assay type: in vivo, human
Method: (§1) None of the patients suffered from diabetes. […] All patients participating in the study provided informed consent.
(§2) Six patients were studied with dedicated PET and four patients were investigated with PET/CT. A 32 minutes dynamic emission scan was performed immediately after intravenous injection of 10 MBq/kg body weight ACE. The scan time was 12×5s, 6×10s, 4×30s, 4×60s, 2×120s and 4×300s. Frame 30 (17-22 minutes after injection) generally provided the best image quality with highest tumor to background ratio and was therefore chosen for subsequent data analysis.
(§3) Isoactivity pixel value=(MPVtumor+APVbackground)×50%

[2] = test system: lymph node metastases of head and neck squamous cell carcinoma; test: ACE-PET imaging of metastases; assay type: in vivo, human
Method: as §1, §2, §3

salivary glands = test: ACE-PET physiological uptake in normal tissue; set-up: species or system human; details: in vivo
Method: as §2

[3] = test system: lymph node metastases of head and neck squamous cell carcinoma; details: 21 metastatic lesions
Method: (§4) Ten consecutive patients (median age 56, range 18-77 years), where of eight males and two females with histologically confirmed squamous cell carcinoma of the head and neck, were included in the study. None of the patients suffered from diabetes. […] Conventional staging of the tumors was performed by CT (n=9), MRI (n=1), histopathology and clinical examination. Histological confirmation was obtained by guided biopsies in all the primary tumors and most metastatic sites. […] All patients participating in the study provided informed consent. The study was accepted by the ethical committee of the participating hospital.
(§5) In all patients, both FDG-PET and ACE-PET were performed before the radiotherapy treatment. ACE and FDG-PET scans were performed on the same or consecutive day, except for one patient where the two types of PET scanning were done five days apart. PET studies were carried out with a dedicated PET scanner (Siemens ECAT HR^+, Knoxville, Tenn., USA) or with a PET/CT (GE Discovery S T, Milwaukee, Wis., USA). All patients were normoglycemic and were fasted at least 6 hours before tracer injection.
(§6) Whole-body scanning was performed one hour after intravenous injection of 5 MBq/kg body weight FDG. Six patients were examined by PET/CT and four patients were studied by PET alone. The patients were instructed to remain recumbent and avoid voicing and other uses of neck muscles during the uptake period.
(§7) PET images were co-registered with the CT or MRI images in all patients by a normalized mutual information procedure supported by manual correction using Hermes Multimodality™ software (Nuclear Diagnostics, Stockholm, Sweden). FDG-PET and ACE-PET images were analyzed both qualitatively and quantitatively, using Hermes Volume Display™ version V2β. In qualitative analysis, PET images were interpreted visually by two nuclear medicine physicians and any disagreement was resolved by consensus. The tumor uptake of FDG and ACE was graded into negligible, mild, moderate and intensive compared to the contra-lateral or surrounding tissues. An abnormal uptake equal to or exceeding mild was considered positive. In quantitative analysis, the mean standardized uptake value (SUV) and tumor volumes delineated by ACE and FDG-PET were evaluated. SUV was calculated as mean radioactivity concentration in the volumes (Bq/cc) divided by injected dose (Bq) per kilogram body weight. […]
(§8) Each tumor volume in FDG-PET and ACE-PET was delineated automatically by tracing an isoactivity pixel value set to 50% threshold of the maximum radioactivity corrected for background. The background was measured from a separately drawn region of interest (ROI) adjacent but at safe distance from the tumor. The isoactivity pixel value of each volume was calculated as: […]

[4] = test system: primary tumors of head and neck squamous cell carcinoma; details: ten patients
Method: as §4, §5, §6, §7, §8

| SMILES | ACE-PET SUV ([1]; primary tumor, individual patient (one line per patient), 10 MBq/kg i.v., frame 17-22 min after injection) | ACE-PET Visual ([1]; primary tumor, individual patient, visual grading of uptake vs contra-lateral or surrounding tissue) | ACE-PET SUV, Mean ± SD ([1]; primary tumors, ten patients) | range of ACE SUV ([1]; primary tumors, ten patients) | ACE SUV (mean±SD) ([2]; 21 metastatic lesions) | range of ACE SUV ([2]; 21 metastatic lesions) | ACE-PET SUV ([2]; individual metastasis (one line per lesion), 10 MBq/kg i.v., frame 17-22 min) | ACE-PET Visual ([2]; individual metastasis, visual grading of uptake) | physiological uptake of ACE in salivary glands (salivary glands) | FDG SUV (mean±SD) [3] | range of FDG SUV [3] | FDG-PET SUV, Mean ± SD [4] | range of FDG SUV [4] |
| --- | --- | --- | --- | --- | --- | --- | --- | --- | --- | --- | --- | --- | --- |
| C[11C](=O)O [ACE, ^11C-acetate] | 3.7 and 3.8 and 2.7 and 5.7 and 10.6 and 4.9 and 3.9 and 9.2 and 2.5 and 6.0 | + (2×) and +++ (4×) and ++ (4×) | 5.3±2.7 | 2.5-10.6 | 4.0±1.3 | 2.4-6.2 | 3.5 and 5.9 and 4.7 and 5.1 and 3.1 and 2.9 and 4.5 and 3.9 and 4.6 and 5.8 and 3.0 and 2.8 and 2.6 and 3.7 and 6.2 and 2.4 and 2.7 | +++ (6×) and ++ (9×) and − and + (5×) | normally high physiological uptake | – | – | – | – |
| OC[C@H]1OC(O)[C@H]([18F])[C@@H](O)[C@@H]1O (stereo partly drawn) [FDG, ^18F-fluoro-2-deoxy-D-glucose] | – | – | – | – | – | – | – | – | – | 4.47±3.3 | 0.9-10.0 | 9.6±7.0 | 1.9-24.5 |
